Results: patent US11685747B2, “Compounds that inhibit MCL-1 protein” (AMGEN INC., priority 2014, dated 2023)

Legend:
[1] = biological target: T1, Mcl-1/Bak protein-protein interactions (Homo sapiens, UniProt Q07820); experiment: Cell-based split luciferase complementation assay; conditions: HEK 293 M cells, serum-free, 4 h
T1 construct: expressed in transfected cells; host or cells: HEK 293 M cells, transient transfection
Procedure: Cell-Based Assay (Split Luciferase)
A split luciferase complementation assay was developed to determine the inhibition of Mcl-1/Bak protein-protein interactions in cells. […] Transient transfection was performed using Lipofectamine® LTX/Plus™ reagent (Life Technologies, Grand Island, N.Y.). 24 h after transfection, cells were collected using non-enzyme based cell dissociation buffer StemPro® Accutase® (Life Technologies), and resuspended in serum-free Opti-MEM® (Life Technologies). Cells were then seeded into assay plates with serially diluted test compounds in 0.3% DMSO at density of a 5000 cells/well. Cells were then incubated for 4 h at 37° C. in a cell culture incubator supplement with 5% CO2. Test plates were equilibrated to room temperate for 30 min before addition of 30 μL Steady-Glo® Luciferase assay reagent (Promega, Madison, Wis.) into each test well. Luminescence was determined using an EnVision® Multilabel plate reader 25 min after the addition of detection reagent. IC50 values were then calculated with Xlfit using a logistical 4-parameter fit model in GraphPad Prism (GraphPad Software, San Diego, Calif.) or in Genedata Screener® (Genedata, Basel, Switzerland).

OPM-2 = experiment: Cell viability assay (OPM-2 10 FBS, CellTiter-Glo); type: cell-based, human; conditions: OPM-2 cells
Procedure: Cell Viability Assay (OPM-2 10 FBS)
Cells were seeded into 384-well plates at 3000 cells/well density in complete growth medium containing 10% FBS, and incubated for 16 h with serially diluted test compounds in a 37° C. incubator with 5% CO2. Cell viability was tested using CellTiter-Glo® assay (Promega, Madison, Wis.) according to the manufacturer recommendations. Luminescence was determined using an EnVision® Multilabel plate reader 25 min after the addition of detection reagent. IC50 values were then calculated with Xlfit using a logistical 4-parameter fit model in GraphPad Prism (GraphPad Software, San Diego, Calif.) or in Genedata Screener® (Genedata, Basel, Switzerland).

recombinant human Mcl-1 = biological target: T2, recombinant human Mcl-1 (Homo sapiens, UniProt Q07820); experiment: Cell free Mcl-1:Bim affinity assay (Mcl-1 HTRF, TR-FRET); type: binding; conditions: inhibition of Mcl-1/Bim interaction
T2 construct: C-terminally 6×His tagged Mcl-1 containing residues 171-327; made in house
T2 sequence (Q07820 171-327): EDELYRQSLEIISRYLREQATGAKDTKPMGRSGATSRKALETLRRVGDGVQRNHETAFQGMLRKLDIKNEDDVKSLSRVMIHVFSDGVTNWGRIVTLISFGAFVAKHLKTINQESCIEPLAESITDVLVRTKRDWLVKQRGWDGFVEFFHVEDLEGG
Procedure: Cell Free Mcl-1:Bim Affinity Assay (Mcl-1 HTRF)
The inhibition of the Mcl-1/Bim interaction was measured using a time-resolved fluorescence resonance energy transfer (TR-FRET) assay. […] A biotinylated peptide derived from human Bim (residues 51-76) was purchased from CPC Scientific (San Jose, Calif.). The TR-FRET assay was conducted in a 384-well white OptiPlate™ (PerkinElmer, Waltham, Mass.) in a total volume of 40 μL. […] The reaction plates were further incubated overnight and then were read on an Envision® multimode reader (PerkinElmer). […] The IC50 values of test compounds were determined from duplicate data by analyzing competition curves using a four-parameter sigmoidal model in GraphPad Prism (GraphPad Software, San Diego, Calif.) or in Genedata Screener® (Genedata, Basel, Switzerland).

T1 sequence (Q07820 whole entry): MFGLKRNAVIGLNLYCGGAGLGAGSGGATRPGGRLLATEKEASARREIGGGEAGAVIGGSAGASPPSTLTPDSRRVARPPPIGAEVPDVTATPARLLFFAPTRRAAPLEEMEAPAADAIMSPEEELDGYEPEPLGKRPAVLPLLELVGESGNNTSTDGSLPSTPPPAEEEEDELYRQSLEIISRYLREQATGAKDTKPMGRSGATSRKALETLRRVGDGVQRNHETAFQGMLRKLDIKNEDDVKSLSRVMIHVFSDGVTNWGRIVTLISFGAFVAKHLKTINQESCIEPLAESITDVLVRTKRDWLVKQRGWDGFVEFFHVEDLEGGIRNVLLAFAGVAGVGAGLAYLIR

SMILES	IC50 [1] [nM]	IC50 (recombinant human Mcl-1) [nM]	IC50 (OPM-2; 16 h) [nM]	IC50 (OPM-2; Homo sapiens, OPM-2, 16 h) [nM]	IC50 (OPM-2; Homo sapiens, 16 h) [nM]
CCCCO[C@H]1/C=C/C[C@H](C)[C@@H](C)S(=O)(=O)NC(=O)c2ccc3c(c2)N(C[C@@H]2CC[C@H]21)C[C@@]1(CCCc2cc(Cl)ccc21)CO3 [Example 73, (1S,3′R,6′R,7′S,8′E,11′S,12′R)-7′-Butoxy-6-Chloro-11′,12′-Dimethyl-3,4-Dihydro-2H,15′H-Spiro[Naphthalene-1,22′ [20]Oxa[13]Thia[1,14]Diazatetracyclo[14.7.2.0^3,6.0^19,24]Pentacos A[8,16,18,24]Tetraen]-15′-One 13′,13′-Dioxide]	34.4	0.367		174	
O=C1NS(=O)(=O)CCCCC[C@H](O)[C@@H]2CC[C@H]2CN2C[C@@]3(CCCc4cc(Cl)ccc43)COc3ccc1cc32 [Example 10, (1S,3′R,6′R,7′S)-6-Chloro-7′-Hydroxy-3,4-Dihydro-2H,15′Hspiro[Naphthalene-1,22′[20]Oxa[13]Thia[1,14]Diazatetracyclo[14.7.2.0^3,6.0^19,24]Penta Cosa[16,18,24]Trien]-15′-One 13′,13′-Dioxide]	232	1.18		9410	
C[C@H]1C/C=C/[C@H](O)[C@@H]2CC[C@H]2CN2C[C@@]3(CCCc4cc(Cl)ccc43)COc3ccc(cc32)C(=O)NS(=O)(=O)[C@@H]1C1CCC1 (single isomer, unassigned) [Example 55]	863	15.2	8690		
CC[C@@H]1CCCC[C@H](O)[C@@H]2CC[C@H]2CN2C[C@@]3(CCCc4ccccc43)COc3ccc(cc32)C(=O)NS1(=O)=O [Example 22, (1S,3′R,6′R,7′S,12′R)-12′-Ethyl-7′-Hydroxy-3,4-Dihydro-2H,15′H-Spiro[Naphthalene-1,22′-[20]Oxa[13]Thia[1,14]Diazatetracyclo[14.7.2.0^3,6.0^19,24]Pentacos A[16,18,24]Trien]-15′-One 13′,13′-Dioxide]	117	0.704		1250	
C[C@H]1C/C=C/[C@H](O)[C@@H]2CC[C@H]2CN2C[C@@]3(CCCc4cc(Cl)ccc43)COc3ccc(cc32)C(=O)NS(=O)(=O)[C@@H]1C1CC1 (single isomer, unassigned) [Example 45]	455	5.5	20000		
CC1(C)CC/C=C\[C@H](O)[C@@H]2CC[C@H]2CN2C[C@@]3(CCCc4cc(Cl)ccc43)COc3ccc(cc32)C(=O)NS1(=O)=O (single isomer, unassigned) [Example 41]	128	4.42		4750	
CC[C@@H]1CCCC[C@H](OC)[C@@H]2CC[C@H]2CN2C[C@@]3(CCCc4cc(Cl)ccc43)COc3ccc(cc32)C(=O)NS1(=O)=O [Example 21, (1S,3′R,6′R,7′S,12′R)-6-Chloro-12′-Ethyl-7′-Methoxy-3,4-Dihydro-2H,15′H-Spiro[Naphthalene-1,22′-[20]Oxa[13]Thia[1,14]Diazatetracyclo[14.7.2.0^3,6.0^19,24]Pentacos A[16,18,24]Trien]-15′-One 13′,13′-Dioxide]	192	2.78		4170	
O=C1NS(=O)(=O)CCC/C=C/[C@H](O)[C@@H]2CC[C@H]2CN2C[C@@]3(CCCc4cc(Cl)ccc43)COc3ccc1cc32 [Example 8, (1S,3′R,6′R,7′S,8′E)-6-Chloro-7′-Hydroxy-3,4-Dihydro-2H,15′H-Spiro[Naphthalene-1,22′-[20]Oxa[13]Thia[1,14]Diazatetracyclo[14.7.2.0^3,6.0^19,24]Pentacos A[8,16,18,24]Tetraen]-15′-One 13′,13′-Dioxide]	211	0.977			1680
CC[C@@H]1CC/C=C/[C@H](OC)[C@@H]2CC[C@H]2CN2C[C@@]3(CCCc4cc(Cl)ccc43)COc3ccc(cc32)C(=O)NS1(=O)=O [Example 20, (1S,3′R,6′R,7′S,8′E,12′R)-6-Chloro-12′-Ethyl-7′-Methoxy-3,4-Dihydro-2H,15′H-Spiro[Naphthalene-1,22′-[20]Oxa[13]Thia[1,14]Diazatetracyclo[14.7.2.0^3,6.0^19,24]Pentacos A[8,16,18,24]Tetraen]-15′-One 13′,13′-Dioxide]	50.4	0.647		390	
CC(C)[C@@H]1[C@H](C)C/C=C/[C@H](O)[C@@H]2CC[C@H]2CN2C[C@@]3(CCCc4cc(Cl)ccc43)COc3ccc(cc32)C(=O)NS1(=O)=O (single isomer, unassigned) [Example 52]	140	0.882	1110		

Continued by falling IC50 [1], values first:

IC50 [1] [nM]	IC50 (recombinant human Mcl-1) [nM]	SMILES	IC50 (OPM-2; 16 h) [nM]	IC50 (OPM-2; Homo sapiens, OPM-2, 16 h) [nM]	IC50 (OPM-2; Homo sapiens, 16 h) [nM]
872	7.02	CC[C@@H]1C/C=C/[C@H](O)[C@@H]2CC[C@H]2CN2C[C@@]3(CCCc4cc(Cl)ccc43)COc3ccc(cc32)C(=O)NS(=O)(=O)C1 (single isomer, unassigned) [Example 33]		14900	
792	24.3	CC(C)[C@@H]1[C@H](C)C/C=C/[C@H](O)[C@@H]2CC[C@H]2CN2C[C@@]3(CCCc4cc(Cl)ccc43)COc3ccc(cc32)C(=O)NS1(=O)=O (single isomer, unassigned) [Example 51]	14400		
375	2.15	C[C@H]1C/C=C/[C@H](O)[C@@H]2CC[C@H]2CN2C[C@@]3(CCCc4cc(Cl)ccc43)COc3ccc(cc32)C(=O)NS(=O)(=O)[C@@H]1C1CCC1 (single isomer, unassigned) [Example 57]	2400		
318	13.6	C[C@@H]1C/C=C/[C@H](O)[C@@H]2CC[C@H]2CN2C[C@@]3(CCCc4cc(Cl)ccc43)COc3ccc(cc32)C(=O)NS(=O)(=O)[C@H]1CC1CCC1 (single isomer, unassigned) [Example 64]	8630		
232	1.01	CC(C)[C@@H]1[C@H](C)C/C=C/[C@H](O)[C@@H]2CC[C@H]2CN2C[C@@]3(CCCc4cc(Cl)ccc43)COc3ccc(cc32)C(=O)NS1(=O)=O (single isomer, unassigned) [Example 50]	1320		
84.8	1.08	CC(C)C[C@@H]1[C@@H](C)C/C=C/[C@H](O)[C@@H]2CC[C@H]2CN2C[C@@]3(CCCc4cc(Cl)ccc43)COc3ccc(cc32)C(=O)NS1(=O)=O (single isomer, unassigned) [Example 67]	600		
78.3	0.728	C[C@H]1C/C=C/[C@H](O)[C@@H]2CC[C@H]2CN2C[C@@]3(CCCc4cc(Cl)ccc43)COc3ccc(cc32)C(=O)NS(=O)(=O)[C@@H]1C1CC1 (single isomer, unassigned) [Example 46]	334		
48.2	0.917	C[C@H]1C/C=C/[C@H](O)[C@@H]2CC[C@H]2CN2C[C@@]3(CCCc4cc(Cl)ccc43)COc3ccc(cc32)C(=O)NS(=O)(=O)[C@@H]1CC1CC1 (single isomer, unassigned) [Example 58]	496		
34.7	0.638	CCC[C@@H]1[C@@H](C)C/C=C/[C@H](O)[C@@H]2CC[C@H]2CN2C[C@@]3(CCCc4cc(Cl)ccc43)COc3ccc(cc32)C(=O)NS1(=O)=O [Example 70, (1S,3′R,6′R,7′S,8′E,11′S,12′R)-6-Chloro-7′-Hydroxy-11′-Methyl-12′-Propyl-3,4-Dihydro-2H,15′H-Spiro[Naphthalene-1,22′-[20]Oxa[13]Thia[1,14] Diazatetracyclo [14.7.2.0^3,6.0^19,24]Pentacosa [8,16,18,24]Tetraen]-15′-One 13′,13′-Dioxide]		238	
31.9	0.289	C[C@H]1C/C=C/[C@H](O)[C@@H]2CC[C@H]2CN2C[C@@]3(CCCc4cc(Cl)ccc43)COc3ccc(cc32)C(=O)NS(=O)(=O)[C@@H]1C1CCC1 (single isomer, unassigned) [Example 56]	208		
23.4	0.514	C[C@H]1C/C=C/[C@H](O)[C@@H]2CC[C@H]2CN2C[C@@]3(CCCc4cc(Cl)ccc43)COc3ccc(cc32)C(=O)NS(=O)(=O)[C@@H]1CC1CC1 (single isomer, unassigned) [Example 60]	158		
